Assay results published in PubChem BioAssay (NCI).
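Values below derive from 48-hour exposures of cells grown in 96-well plates, with endpoints linearly interpolated between the two concentrations bracketing the appropriate inhibition level. GI50: concentration for 50% inhibition of growth. TGI marks complete inhibition of growth.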

Legend:
Experiment in all cases: NCI tumour cell line growth inhibition, 48 h
SK-MEL-28 melanoma = tested on: SK-MEL-28 melanoma
MALME-3M melanoma = tested on: MALME-3M melanoma
HS 578T breast = tested on: HS 578T breast
T-47D breast = tested on: T-47D breast
SK-OV-3 ovarian = tested on: SK-OV-3 ovarian
MDA-N = tested on: MDA-N
A498 renal = tested on: A498 renal
TK-10 renal = tested on: TK-10 renal
OVCAR-8 ovarian = tested on: OVCAR-8 ovarian
MDA-MB-231 breast = tested on: MDA-MB-231 breast
SR leukemia = tested on: SR leukemia
MDA-MB-435 = tested on: MDA-MB-435
HOP-92 NSCLC = tested on: HOP-92 NSCLC
HCT-116 colon = tested on: HCT-116 colon
BT-549 breast = tested on: BT-549 breast
KM20L2 colon = tested on: KM20L2 colon
DMS 114 small cell lung = tested on: DMS 114 small cell lung

Row | SMILES | TGI (SK-MEL-28 melanoma) [µM] | TGI (MALME-3M melanoma) [µM] | TGI (HS 578T breast) [µM] | TGI (T-47D breast) [µM] | TGI (SK-OV-3 ovarian) [µM] | TGI (MDA-N) [µM] | TGI (A498 renal) [µM] | TGI (TK-10 renal) [µM] | TGI (OVCAR-8 ovarian) [µM] | TGI (MDA-MB-231 breast) [µM] | TGI (SR leukemia) [µM] | TGI (MDA-MB-435) [µM] | TGI (HOP-92 NSCLC) [µM] | GI50 (A498 renal) [µM] | GI50 (HOP-92 NSCLC) [µM] | TGI (HCT-116 colon) [µM] | TGI (BT-549 breast) [µM] | TGI (KM20L2 colon) [µM] | TGI (DMS 114 small cell lung) [µM]
1 | CS(C)(=O)=Nn1c(=O)n2n(c1=O)[C@H]1CC[C@@H]2C1 | > 100 | > 100 | > 100 | > 100 | > 100 | > 100 | > 100 | > 100 | > 100 | > 100 | > 100 | > 100 | > 100 | – | – | – | – | – | –
2 | C=CCn1c(C)nc2cc(Nc3nc(N4CCCC4)nc4nc[nH]c34)ccc21 | – | – | – | – | – | – | > 100 | – | – | – | – | – | > 100 | > 100 | > 100 | – | – | – | –
3 | Cc1ccnn1CCc1ccc(Cl)cc1Cl | > 100 | > 100 | > 100 | > 100 | > 100 | > 100 | – | 48.1 | > 100 | > 100 | > 100 | > 100 | – | – | – | > 100 | 31.3 | – | –
4 | O=C1Sc2sc(=S)sc2SC1c1ccccc1 (stereo not given) | > 64.8 | > 83.5 | – | – | > 100 | – | > 100 | – | > 100 | – | – | – | > 82.4 | – | – | > 100 | – | > 100 | > 100
5 | Cc1c2cnccc2c(C)c2c1c1ccccc1n2CCCCCCCl | > 50 | > 50 | – | – | > 50 | – | > 50 | – | > 50 | – | – | – | > 50 | – | – | > 50 | – | > 50 | > 50
6 | CC1=CC2=C(C=O)C(=O)[C@](C)(O)[C@@H](O)C2=CO1 | > 78.1 | > 70.2 | – | – | 76.3 | – | 73.5 | – | > 100 | – | – | – | > 100 | – | – | > 59.9 | – | – | –
